Source: patent publication US20080241919A1, “Defined media for pluripotent stem cell culture” (The Burnham Institute of Medical Research, priority 2003, published 2008)

Key:
p38 MAPK = p38 MAPK phosphorylation in hESCs (Western blot, immunocytochemistry); assay type: cell-based, human
Description: (e) bFGF is essential for maintaining hESCs in a healthy undifferentiated state, in part through MAPK signaling […]. In media lacking bFGF, hESC colonies maintained on Matrigel-coated plates have a completely differentiated morphology upon the first passage [A]. To examine the signaling pathways that might be mediated by bFGF, the phosphorylation level of p38 MAPK in undifferentiated (in the presence of bFGF [+bFGF]) and differentiated (in the absence of bFGF [−bFGF]) hESCs was examined. […] White arrows delineate the edge of an hESC colony.
To help understand the molecular mechanisms underlying bFGF's role in maintaining undifferentiated growth of hESCs, the mitogen-activated protein kinase (MAPK) signaling pathway was examined.

[1] = tested on: Oct-4 expression in hESCs; assay: hESCs carrying Oct-4 promoter-driven EGFP reporter, with or without bFGF; assay type: cell-based, human
Description: (d) bFGF is critical for sustaining undifferentiated growth of hESCs carrying an Oct-4-driven reporter gene. hESCs carrying a reporter gene (enhanced green fluorescence protein [EGFP]) that is under control of the Oct-4 promoter was generated via lentiviral-mediated transduction.
FIG. 6: (a) Growth of hESCs carrying an Oct-4-driven reporter gene in the presence or absence of bFGF. hESCs carrying a reporter gene (enhanced green fluorescence protein [EGFP]) that is under control of the Oct-4 promoter was generated via lentiviral-mediated transduction. Transfected hESCs were cultivated under the feeder-free conditions in the defined media with bFGF (20 ng/ml) or without bFGF for 4 days. […] The cells were further dissociated and analyzed on a BD FacsSort instrument after staining with 7-aminoactinomycin D (7-AAD) to eliminate the dead cells [E]. With FACS-sorting, significant increases (200%) of Oct4-EGFP negative cells were observed after withdrawal bFGF for 4 days. (Note the actual percentage of Oct4-EGFP negative cells in the absence of bFGF should be even higher, because it takes around 2 days for the green fluorescence to be completely quenched after Oct-4 expression has been turned off.) (b) bFGF concentration in MEF-CM. Growth-arrested MEFs were obtained from Specialty Media (Phillipsburg, N.J.). […] 50 μl of concentrates was loaded onto a SDS/PAGE gel and analyzed by Western blot. […]
To discover the minimal essential conditions needed to support the long-term growth of undifferentiated hESCs, morphological analysis was used to assess the developmental stage of hESCs at different times. […] The state of differentiation of hESC was further assessed by generating (via lentiviral-mediated transduction) hESCs carrying a reporter gene (enhanced green fluorescence protein (EGFP)) under control of the Oct-4 promoter. Using these transfected hESCs (carrying Oct-4 driven EGFP), the undifferentiated state of hESCs can be visualized by green fluorescence (indicating Oct-4 expression). […]

Substance: bFGF: basic fibroblast growth factor, growth factor added to the defined hESC media
- large differentiated cells displaying high levels of p38 phosphorylation (p38 MAPK; absence of bFGF): about 5%
- p38 MAPK form in undifferentiated hESCs by immunocytochemistry (p38 MAPK; defined media containing 20 ng/ml bFGF): unphosphorylated inactive form of p38 MAPK was present robustly
- phosphorylation levels of p38 MAPK by Western blot (p38 MAPK; increased bFGF concentrations): no changes
- cells inside colonies with differentiated morphology that ceased Oct-4 expression ([1]; absence of bFGF, first passage (day 7 after seeding)): more than 70%
- morphology and Oct-4-driven EGFP fluorescence of hESC colonies ([1]; defined media containing 20 ng/ml bFGF, feeder-free): undifferentiated morphology and strong green fluorescence
- increase of Oct4-EGFP negative cells by FACS ([1]; withdrawal of bFGF for 4 days): 200%
